Results on 17 molecules are retold here after patent publication US4507315A, “Hypoglycaemic and hypolipidaemic benzamide substituted (1H-) imidazole derivatives and compositions” (May & Baker Limited, priority 1982, dated 1985).

Where “and” joins values, the source holds several entries; their conditions need not be identical. Identical values can stand only once.

Format in all cases: in vivo
The test system of assay [1] is Diabetic mice (strain C 57, black, MRI derived Obese/Obese). Kind of assay: Hypoglycaemic Activity in Diabetic Mice (oral, 3 days). Particulars: for change in vivo at 200 mg/kg / change in blood glucose compared with control: 200 mg/kg body weight per day; for change in vivo at 30 mg/kg: 30 mg/kg body weight per day; for change in vivo at 100 mg/kg: 100 mg/kg body weight per day. On the procedure: Diabetic mice (strain C 57, black, MRI derived Obese/Obese) of either sex each weighing between 45 and 70 g were given the test compound orally in tragacanth mucilage at a dose of 5,10,30,100,200 or 500 mg/kg body weight per day for 3 days. Three hours after the last dose the animals were killed with carbon dioxide and bled by cardiac puncture. The blood glucose levels were assessed by the glucose-oxidase method of GOD-Perid. Control groups (given doses of unmedicated tragacanth mucilage) were included with each test. The percentage reduction in the concentration of blood glucose was calculated by comparison with the simultaneous controls, for each of the test compounds used.

In a further assay the test system is Male Wistar rats. Kind of assay: Hypolipidaemic Activity in Rats. Particulars: oral, last 3 days of 10-day cholesterol/cholic acid diet. On the procedure: Male Wistar rats each weighing between 120 and 150 g were caged in groups of eight and fed a pelleted diet incorporating 0.5% w/w cholesterol and 0.25% w/w cholic acid for 10 days. For the last 3 days of that period the test compound was administered orally at a dose of 30, 100 or 200 mg/kg body weight per day in tragacanth mucilage.
At noon on day 10 the animals were killed by inhalation of carbon dioxide from solid carbon dioxide. A sample of blood was removed by cardiac puncture and the serum cholesterol and serum triglycerides were analysed by means of an auto-analyser.
Control group (receiving only doses of unmedicated tragacanth mucilage) were included with each test.
The percentage reductions in the concentrations of serum cholesterol and serum triglycerides were calculated by comparison with the simultaneous controls, for each concentration of the test compound used.

Assay [2] relates to Diabetic mice (strain C 57, black, MRI derived Obese/Obese). Kind of assay: Hypoglycaemic Activity in Diabetic Mice (oral, 8 days, W hydrochloride). Particulars: male diabetic mice. How it is done:
Groups of diabetic mice (strain C 57, black, MRI derived Obese/Obese) of male sex of mean weight between 43 and 46 g were given the test compound W hydrochloride orally in tragacanth mucilage at a dose of 2, 5 or 100 mg/kg body weight per day for 8 days. Three hours after the last dose the animals were bled from the tail vein. The blood glucose levels were assessed by the glucose-oxidase method of GOD-Perid. Control groups (given doses of unmedicated tragacanth mucilage) were included with each test. The percentage reduction in the concentration of blood glucose was calculated by comparison with the simultaneous controls.

In the next assay the test system is Rats (Sprague-Dawley). Kind of assay: Hypoglycaemic Activity in Fasted Rats. Particulars: 100 mg/kg body weight per day, oral, 4 days, fasted male Sprague-Dawley rats. How it is done:
Rats (Sprague-Dawley) of male sex each weighing between 171 and 174 g were given the test compound W hydrochloride orally in tragacanth mucilage at a dose of 100 mg/kg body weight per day for 4 days. Four hours after the third dose the animals were kept without food up to and beyond the fourth dose. Three hours after the last dose the animals were bled from the tail vein. The blood glucose levels were assessed by the glucose-oxidase method of GOD-Perid. Control groups (given doses of unmedicated tragacanth mucilage) were included with each test. The percentage reduction in the concentration of blood glucose was calculated by comparison with the simultaneous controls.

Where [3] appears, read: Mus musculus, po, 72 h, read-out: change in blood glucose compared with control.

Regarding `CC(CCNC(=O)c1ccccc1NS(=O)(=O)c1ccc(Cl)cc1)n1ccnc1` (racemic) [WW, (±)-2-(4-chlorobenzenesulphonamido)-N-(3-imidazol-1-ylbutyl)benzamide], the change in vivo at 200 mg/kg in assay [1] (setting [3]) is -24%.

Consider `O=C(NCCCn1ccnc1)c1ccccc1NS(=O)(=O)c1ccc(Cl)cc1` [A, 2-(4-chlorobenzenesulphonamido)-N-(3-imidazol-1-ylpropyl)benzamide], for which, in the assay with Male Wistar rats (30 mg/kg body weight per day), the “% change in serum cholesterol compared with control” value (“% change in serum cholesterol” below) is reported as -13% and the “% change in serum triglycerides compared with control” value (“% change in serum triglycerides” below) is “+67%”. In addition, in the assay with Male Wistar rats (100 mg/kg body weight per day), the “% change in serum cholesterol” value is listed as -35% and the “% change in serum triglycerides” value is listed as “+36%”. Also, the “% change in serum cholesterol” value in the assay on Male Wistar rats (200 mg/kg body weight per day) was -82% and -83%. Besides, in assay [1] (setting [3]), the change in vivo at 30 mg/kg was -13% and the change in vivo at 100 mg/kg was -49%.

In the case of `O=C(NCCCn1ccnc1)c1ccccc1NS(=O)(=O)c1cccc(Cl)c1` [B, 2-(3-chlorobenzenesulphonamido)-N-(3-imidazol-1-ylpropyl)benzamide], the change in vivo at 200 mg/kg in assay [1] (setting [3]) was -60%.

Consider `O=C(NCCCn1ccnc1)c1ccccc1NS(=O)(=O)c1ccc(Br)cc1` [D, 2-(4-bromobenzenesulphonamido)-N-(3-imidazol-1-ylpropyl)benzamide], for which, in the assay with Male Wistar rats (200 mg/kg body weight per day), the “% change in serum cholesterol” value is listed as -63% and the “% change in serum triglycerides” value was -59%.

On to `O=C(NCCCn1ccnc1)c1ccccc1NS(=O)(=O)c1ccccc1` [E, 2-(benzenesulphonamido)-N-(3-imidazol-1-ylpropyl)benzamide], for which, in the assay on Male Wistar rats (200 mg/kg body weight per day), the “% change in serum cholesterol” value was -31% and the “% change in serum triglycerides” value was “+55%”.

On to `Cc1ccc(S(=O)(=O)Nc2ccccc2C(=O)NCCCn2ccnc2)cc1` [F, 2-(4-methylbenzenesulphonamido)-N-(3-imidazol-1-yl-propyl)benzamide], for which, in the assay with Male Wistar rats (200 mg/kg body weight per day), the “% change in serum cholesterol” value was -72% and the “% change in serum triglycerides” value was -60%. In addition, the change in vivo at 200 mg/kg in assay [1] (setting [3]) was -32%.

`Cc1ccc(S(=O)(=O)Nc2ccccc2C(=O)NCCCn2ccnc2)cc1C` [G, 2-(3,4-dimethylbenzenesulphonamido)-N-(3-imidazol-1-ylpropyl)benzamide]: the change in vivo at 200 mg/kg in assay [1] (setting [3]) is -25%.

As for `O=C(NCCCn1ccnc1)c1cc(Cl)ccc1NS(=O)(=O)c1ccc(Cl)cc1` [I, 5-chloro-2-(4-chlorobenzenesulphonamido)-N-(3-imidazol-1-ylpropyl)benzamide], the change in vivo at 200 mg/kg in assay [1] (setting [3]) is -57%.

Take `O=C(NCCCn1ccnc1)c1ccccc1NS(=O)(=O)c1cc(Cl)ccc1Cl` [J, 2-(2,5-dichlorobenzenesulphonamido)-N-(3-imidazol-1-ylpropyl)benzamide]: the change in vivo at 200 mg/kg in assay [1] (setting [3]) was -42%.

Regarding `Cc1cn(CCCNC(=O)c2ccccc2NS(=O)(=O)c2ccc(Cl)cc2)cn1` [N, 2-(4-chlorobenzenesulphonamido)-N-[3-(4-methylimidazol-1-yl)propyl]benzamide], the change in vivo at 200 mg/kg in assay [1] (setting [3]) is -48%.

As for `O=C(NCCCn1ccnc1)c1ccccc1NS(=O)(=O)c1ccc(F)cc1F` [OO, 2-(2,4-difluorobenzenesulphonamido)-N-(3-imidazol-1-ylpropyl)benzamide], the change in vivo at 200 mg/kg in assay [1] (setting [3]) was -35%.

Regarding `Cc1ccccc1S(=O)(=O)Nc1ccccc1C(=O)NCCCn1ccnc1` [QQ, 2-(2-methylbenzenesulphonamido)-N-(3-imidazol-1-ylpropyl)benzamide], the change in vivo at 200 mg/kg in assay [1] (setting [3]) was -43%.

In the case of `O=C(NCCn1ccnc1)c1ccccc1NS(=O)(=O)c1ccc(Cl)cc1` [VV, 2-(4-chlorobenzenesulphonamido)-N-(2-imidazol-1-ylethyl)benzamide], in assay [1] (setting [3]), the change in vivo at 200 mg/kg was -53%.

For the molecule `Cl.O=C(NCCCn1ccnc1)c1ccccc1NS(=O)(=O)c1cccc(C(F)(F)F)c1` [W hydrochloride, 2-(3-trifluoromethylbenzenesulphonamido)-N-(3-imidazol-1-ylpropyl)benzamide hydrochloride], the “% change in blood glucose compared with control” value in assay [2] (2 mg/kg body weight per day) is listed as -25%; in assay [2] (5 mg/kg body weight per day), -28%; in assay [2] (100 mg/kg body weight per day) it was -50%; in the assay on Rats (Sprague-Dawley) it was -26%. Besides, the “change in blood glucose compared with control” value in assay [1] was -62%. In assay [1] (Mus musculus, po, 72 h, 5 mg/kg body weight per day, read-out: change in blood glucose compared with control), the change in vivo at 5 mg/kg is -25%. The change in vivo at 10 mg/kg in assay [1] (Mus musculus, po, 72 h, 10 mg/kg body weight per day, read-out: change in blood glucose compared with control) was -29%. Also, in assay [1] (setting [3]), the change in vivo at 30 mg/kg was -58%. For the same molecule, the change in vivo at 100 mg/kg in assay [1] (setting [3]) was -50%. In addition, the change in vivo at 500 mg/kg in assay [1] (Mus musculus, po, 72 h, 500 mg/kg body weight per day, read-out: change in blood glucose compared with control) was -46%.

In the case of `O=C(NCCCn1ccnc1)c1ccccc1NS(=O)(=O)c1cccc(C(F)(F)F)c1` [W, 2-(3-trifluoromethylbenzenesulphonamido)-N-(3-imidazol-1-ylpropyl)benzamide], the “change in blood glucose compared with control” value in assay [1] is on record as -68%.

Consider `O=C(NCCCn1ccnc1)c1ccccc1NS(=O)(=O)c1ccc(Cl)c(Cl)c1` [X, 2-(3,4-dichlorobenzenesulphonamido)-N-(3-imidazol-1-ylpropyl)benzamide], for which, in assay [1] (setting [3]), the change in vivo at 200 mg/kg was -58%.

Take `O=C(NCCCn1ccnc1)c1ccccc1NS(=O)(=O)c1ccc(Cl)cc1Cl` [Y, 2-(2,4-dichlorobenzenesulphonamido)-N-(3-imidazol-1-ylpropyl)benzamide]: the change in vivo at 200 mg/kg in assay [1] (setting [3]) was -51%.
